# Read-outs that look alike come from different tables or passages of the source.
# Columns and labels:
# [1] = Pharmacokinetic study after single oral and IV administration of KD025 to rats; type: in vivo, Sprague–Dawley rats; settings: rat
# Description: The feasibility of the developed LC/MS–MS method was examined by performing pharmacokinetic studies of KD025 in rats. Animal experiments were performed in accordance with the guide for the care and use of laboratory animals issued by the National Institutes of Health, as described previously. All experimental protocols were approved by the Animal Care and Use Committee of Gachon University (No. GIACUC-R2018014, approved on June 20th, 2018). Sprague–Dawley rats (8–9 weeks, 250–300 g, Nara Biotech, South Korea) were provided free access to food and water and maintained under 12 h light/dark cycles to adjust to the laboratory environment for a week before commencing the study. Rats were anesthetized by intramuscular injections (20 mg/kg) of Zoletil® (Vibrac, TX, USA) and cannulated by surgery to the femoral artery with polyethylene tubing (Clay Adams, NJ, USA) filled with heparinized saline (20 IU/mL) for blood sampling. After the rats had recovered from surgery, KD025 in a vehicle mixture (DMSO:Cremophor EL:PEG400:DDW = 5:10:40:50) was administered to rats at a dose of 5 mg/kg and 2 mg/kg for oral and IV administration, respectively. Blood samples (220 μL) were collected at 0 (blank), 1 (IV only), 5, 15, 30, 60, 120, 180, 240, 360, 480 and 1440 (oral only) min after KD025 administration and equal volumes of saline were injected for compensation of fluid loss. Plasma was separated from other components of blood by centrifugation at 14,000 rpm for 15 min at 4 °C and then was stored at −20 °C until analysis.
# For sample preparation, 100 μL of IS in acetonitrile solution (250 ng/mL) was added to 50 μL of plasma samples, followed by vortex-mixing in 1 min for deproteinization. Samples were then centrifuged at 14,000 rpm for 15 min at 4 °C, and 100 μL aliquots of the supernatant were collected for analysis, as described in Section 3.2. The plasma peak concentration (Cmax) and time to reach Cmax (Tmax) were directly determined from each individual plasma concentration–time profile. Other pharmacokinetic parameters were calculated using WinNonlin® 3.1 software (Pharsight, Cary, NC, USA) by a non-compartmental method, as described previously. Results are presented as means ± standard deviations.
# [2] = Stability of KD025 in rat plasma under storage/handling conditions; type: in vitro ADME; settings: for Stability (%), auto-sampler stability (24 h at 4 °C): processed rat plasma sample; for Stability (%), auto-sampler stability (24 h at 4 °C) / Stability (%), freeze-thaw stability (3 cycles) / Stability (%), long-term stability (4 weeks at −20 °C) / Stability (%), short-term stability (4 h at room temperature): n = 3
# Description: (§1) The stability of stock solutions of KD025 and IS was assessed by comparing the peak response of freshly prepared methanol/acetonitrile solution with that of the solution stored at room temperature for 4 hours or at −20 °C for 4 weeks of KD025 (200 ng/mL) and IS (250 ng/mL). The stability of QC samples in rat plasma at low, middle, high, and ultra-high concentrations was investigated in terms of short- and long-term stability, post-preparative stability, and freeze-thaw stability. Short-term stability was assessed by holding QC samples at the laboratory condition (room temperature) for 4 h, while QC samples were stored at −20 °C for 4 weeks to evaluate long-term stability. The post-preparative stability of processed samples stored in an autosampler (4 °C) was evaluated after 24 hours. Freeze-thaw stability was tested over three repeated cycles, in which QC samples were frozen at −20 °C and then thawed at room temperature. Peak area ratio changes of < 15% between stored and freshly prepared samples were considered as the criteria for the stability of samples [41].
# [3] = Stability of stock solutions; type: physicochemical; settings: KD025 200 ng/mL, IS 250 ng/mL; for Stock solution stability, concentration as % of fresh samples: room temperature for 4 h; for Stock solution stability: −20 °C for 4 weeks
# Description: as §1
# ROCK2 = tested on: ROCK2; design: method as in PMID 26486225, PMID 21242007; settings: cited from earlier work
# [4] = design: method as in PMID 28389592; settings: 38 patients with psoriasis, oral administration, phase 2; cited from earlier work
# [5] = design: method as in doi:10.1016/j.bbmt.2018.12.100, doi:10.1182/blood-2019-125986, doi:10.1097/01.HS9.0000564392.13730.a3; settings: 54 patients, phase 2a; cited from earlier work
# [6] = human, in vivo, po; cited from earlier work
# [7] = Sprague-Dawley, plasma, IV 2 mg/kg, n = 5
# [8] = Sprague-Dawley, plasma, PO 5 mg/kg, n = 5
# [9] = rat plasma, UHQC 8000 ng/mL diluted 10 times to 800 ng/mL
compound,measurement,setting,value
"CC(C)NC(=O)COc1cccc(-c2nc(Nc3ccc4[nH]ncc4c3)c3ccccc3n2)c1 [KD025, 2-(3-(4-((1H-Indazol-5-yl)amino)quinazolin-2-yl)phenoxy)-N-isopropylacetamide]",AUC(0-t),[1]; [7],872 ng·h/mL
same,MRT,[1]; [7],0.773 h
same,clearance,[1]; [7],38.9 ± 6.2 mL/min/kg
same,half-life,[1]; [7],1.47 ± 0.332 h
same,Cmax,"[1]; Sprague-Dawley, plasma, IV 2 mg/kg, n = 5, C0 estimated by noncompartmental analysis, read-out: Cmax (C0)",4420 ± 1210 ng/mL
same,Vd,"[1]; Sprague-Dawley, plasma, IV 2 mg/kg, n = 5, read-out: Vss",1.78 ± 0.287 L/kg
same,AUC(0-t),[1]; [8],763 ng·h/mL
same,MRT,[1]; [8],7.91 h
same,half-life,[1]; [8],5.89 ± 2.82 h
same,Tmax,"[1]; Sprague-Dawley, plasma, PO 5 mg/kg, n = 5, mean ± SD",2.2 h
same,Cmax,"[1]; Sprague-Dawley, plasma, PO 5 mg/kg, n = 5, mean ± SD, read-out: Cmax",128 ± 74.7 ng/mL
same,AUC(0-inf),"[1]; Sprague-Dawley, plasma, iv, 2 mg/kg, IV 2 mg/kg, n = 5",812 ng·h/mL
same,bioavailability,"[1]; Sprague-Dawley, plasma, oral, PO 5 mg/kg vs IV 2 mg/kg, AUC∞PO/AUC∞IV × 100",~37%
same,AUC(0-inf),"[1]; Sprague-Dawley, plasma, po, 5 mg/kg, PO 5 mg/kg, n = 5",877 ng·h/mL
same,AUClast to AUC∞ ratio,[1]; IV 2 mg/kg,99.2%
same,AUC∞ /Dose,"[1]; IV 2 mg/kg, n = 5",26.3 ± 5.0 μg∙min/mL/[mg/kg]
same,AUC∞,"[1]; IV 2 mg/kg, n = 5, 2 mg/kg",52.7 ± 10.0 µg·min/mL
same,AUC∞ /Dose,"[1]; PO 5 mg/kg, n = 5",9.7 ± 2.4 μg∙min/mL/[mg/kg]
same,AUC∞,"[1]; PO 5 mg/kg, n = 5, 5 mg/kg",48.7 ± 11.8 µg·min/mL
same,AUClast to AUC∞ ratio,[1]; oral 5 mg/kg,94.0%
same,"Stability (%), auto-sampler stability (24 h at 4 °C)",[2]; 1 ng/mL,112.1 ± 2.0%
same,"Stability (%), auto-sampler stability (24 h at 4 °C)",[2]; 3 ng/mL,100.2 ± 0.2%
same,"Stability (%), auto-sampler stability (24 h at 4 °C)",[2]; 40 ng/mL,102.0 ± 1.3%
same,"Stability (%), auto-sampler stability (24 h at 4 °C)",[2]; 400 ng/mL,98.1 ± 2.1%
same,"Stability (%), auto-sampler stability (24 h at 4 °C)",[2]; 800 ng/mL,101.1 ± 0.8%
same,"Stability (%), auto-sampler stability (24 h at 4 °C)",[2]; UHQC 8000 ng/mL diluted 10 times to 800 ng/mL,103.3 ± 3.2%
same,"Short-term stability, peak area ratio vs freshly prepared samples","[2]; rat plasma at room temperature (4 h), range over QC and UHQC concentrations",92.8–100.5%
same,"Long-term stability, peak area ratio vs freshly prepared samples","[2]; rat plasma at −20 °C (4 weeks), range over QC and UHQC concentrations",95.8–109.9%
same,"Stability (%), freeze-thaw stability (3 cycles)","[2]; rat plasma, 1 ng/mL",114.1 ± 1.5%
same,"Stability (%), long-term stability (4 weeks at −20 °C)","[2]; rat plasma, 1 ng/mL",95.8 ± 3.7%
same,"Stability (%), short-term stability (4 h at room temperature)","[2]; rat plasma, 1 ng/mL",92.8 ± 5.0%
same,"Stability (%), freeze-thaw stability (3 cycles)","[2]; rat plasma, 3 ng/mL",108.7 ± 3.4%
same,"Stability (%), long-term stability (4 weeks at −20 °C)","[2]; rat plasma, 3 ng/mL",104.9 ± 6.0%
same,"Stability (%), short-term stability (4 h at room temperature)","[2]; rat plasma, 3 ng/mL",93.0 ± 1.3%
same,"Stability (%), freeze-thaw stability (3 cycles)","[2]; rat plasma, 40 ng/mL",110.1 ± 6.5%
same,"Stability (%), long-term stability (4 weeks at −20 °C)","[2]; rat plasma, 40 ng/mL",106.3 ± 3.0%
same,"Stability (%), short-term stability (4 h at room temperature)","[2]; rat plasma, 40 ng/mL",94.0 ± 1.6%
same,"Stability (%), freeze-thaw stability (3 cycles)","[2]; rat plasma, 400 ng/mL",103.3 ± 3.3%
same,"Stability (%), long-term stability (4 weeks at −20 °C)","[2]; rat plasma, 400 ng/mL",109.9 ± 2.2%
same,"Stability (%), short-term stability (4 h at room temperature)","[2]; rat plasma, 400 ng/mL",99.0 ± 0.6%
same,"Stability (%), freeze-thaw stability (3 cycles)","[2]; rat plasma, 800 ng/mL",109.3 ± 5.3%
same,"Stability (%), long-term stability (4 weeks at −20 °C)","[2]; rat plasma, 800 ng/mL",106.4 ± 1.1%
same,"Stability (%), short-term stability (4 h at room temperature)","[2]; rat plasma, 800 ng/mL",93.6 ± 1.8%
same,"Stability (%), freeze-thaw stability (3 cycles)",[2]; [9],114.3 ± 2.2%
same,"Stability (%), long-term stability (4 weeks at −20 °C)",[2]; [9],98.6 ± 0.5%
same,"Stability (%), short-term stability (4 h at room temperature)",[2]; [9],100.5 ± 2.5%
same,Peak area ratio vs fresh samples after three freeze-thaw cycles,"[2]; rat plasma, range over five QC and UHQC concentrations",103.3–114.3%
same,"Post-preparative stability, peak area ratio","[2]; samples stored in autosampler at 4 °C (24 h), range over QC and UHQC concentrations",98.1–112.1%
same,"Stock solution stability, concentration as % of fresh samples",[3],89.6%
same,Stock solution stability,[3],95.4%
same,Selectivity for ROCK2 than ROCK1,ROCK2,100 fold
same,Clinical effect in psoriasis,[4],"reduced psoriasis area, normalized skin pathology, and down-regulated serum IL-17 and IL-23 cytokines"
same,Tolerability,[4],"well tolerated, with no serious side effects"
same,Clinical response in chronic graft-versus-host disease,[5],clinically meaningful responses with little toxicity and reductions in corticosteroid doses
same,Tolerability,[6],"well tolerated and produced no significant adverse events, including cardiovascular side effects"
CC1=C(C(=O)Nc2cc3cn[nH]c3cc2F)C(c2ccc(C(F)(F)F)cc2)CC(=O)N1 (stereo not drawn) [IS],"Stock solution stability, concentration as % of fresh samples",[3],100.0%
same,Stock solution stability,[3],91.1%

# From publication PMC7144358, “Determination of KD025 (SLx-2119), a Selective ROCK2 Inhibitor, in Rat Plasma by High-Performance Liquid Chromatography-Tandem Mass Spectrometry and Its Pharmacokinetic Application” (Molecules, 2020)
